The values that follow come from patent publication US10080751B2, “Systems and methods for treating bacterial infection” (priority 2016, dated 2018).

Molecules are shown by their SMILES. Where a name gives a salt, the structure may show the parent alone.

For the series the following is noted: both, rat, in vivo, iv, 4 weeks. The method, then: A repeated-dose, 4-week toxicity study was conducted in male and female rats, where single, daily IV bolus doses up to 60 mg/kg were given. […] A 28-day toxicity study was also conducted in male and female marmosets, where iclaprim mesylate was infused intravenously over a 20-minute interval.

As to `COc1cc(Cc2cnc(N)nc2N)c2c(c1OC)OC(C1CC1)C=C2` (racemic) [iclaprim mesylate, 5-[(2RS)-2-cyclopropyl-7,8-dimethoxy-2Hchromen-5-ylmethyl] pyrimidine-2,4-diamine methanesulfonate], the “dosages with histopathological changes at the injection sites” value was at least 10 mg/kg/day.
